A value given as a limit tells only on which side of the number the result lay.

Test system in one data set: not listed separately
The data set can be described thus: Cytotoxicity, methyltetrazolium (MTT) assay on MDCK cell monolayer. The settings on record: dog; MDCK cells, 72 h, MTT; read-out: CC50, cytotoxic concentration; the concentration resulting in 50% death of cells. The data set is classed as cell-based. The protocol:
(§1) The cytotoxic properties of the compounds were investigated in a separate series of experiments. A series of threefold dilutions (300–3.7 µg/mL) were prepared from the test compounds, after which they were added to the wells of plates with a monolayer of MDCK cells (ATCC CCL-34). […] The plates with cells were incubated for 2 h. The precipitate was dissolved in DMSO (0.1 mL per well). The optical density in the wells was measured on a Thermo Multiskan FC plate photometer (Thermo Fisher Scientific, USA) at a wavelength of 540 nm. Based on the obtained data, CC50 values (the concentration of the compound, leading to a decrease in optical density by half, compared to wells without the addition of compounds) were calculated.
As for `Sc1nncn1N=CC#Cc1ccccc1` [Compound 1a, 4-((3-phenylprop-2-yn-1-ylidene)amino)-4H-1,2,4-triazole-3-thiol], the CC50 at 72 h amounted to 134 ± 11 µM.
For the compound `Cc1nnc(S)n1N=CC#Cc1ccccc1` [Compound 1b, 5-methyl-4-((3-phenylprop-2-yn-1-ylidene)amino)-4H-1,2,4-triazole-3-thiol], the CC50 at 72 h came to 126 ± 11.3 µM.
Take `CCc1nnc(S)n1N=CC#Cc1ccccc1` [Compound 1c, 5-ethyl-4-((3-phenylprop-2-yn-1-ylidene)amino)-4H-1,2,4-triazole-3-thiol]: the CC50 at 72 h was 119 ± 9.6 µM.
For `Sc1nncn1NCC#Cc1ccccc1` [Compound 2a, 4-((3-phenylprop-2-yn-1-yl)amino)-4H-1,2,4-triazole-3-thiol], the CC50 at 72 h was over 1300 µM.
Still for that read-out and setting: the value for `Cc1nnc(S)n1NCC#Cc1ccccc1` [Compound 2b, 5-methyl-4-((3-phenylprop-2-yn-1-yl)amino)-4H-1,2,4-triazole-3-thiol] was over 1200 µM.
Take `CCc1nnc(S)n1NCC#Cc1ccccc1` [Compound 2c, 5-ethyl-4-((3-phenylprop-2-yn-1-yl)amino)-4H-1,2,4-triazole-3-thiol]: the CC50 at 72 h stood at 487 ± 22.5 µM.
On to `CCCc1nnc(S)n1NCC#Cc1ccccc1` [Compound 2d, 5-propyl-4-((3-phenylprop-2-yn-1-yl)amino)-4H-1,2,4-triazole-3-thiol], for which the CC50 at 72 h was 138 ± 12 µM.
On to `C1=Nn2cnnc2S/C1=C\c1ccccc1` [Compound 6a, (Z)-7-benzylidene-7H-[1,2,4]triazolo[3,4-b][1,3,4]thiadiazine], for which the CC50 at 72 h is 578 ± 32.3 µM.
As to `Cc1nnc2n1N=C/C(=C/c1ccccc1)S2` [Compound 6b, (Z)-7-benzylidene-3-methyl-7H-[1,2,4]triazolo[3,4-b][1,3,4]thiadiazine], the CC50 at 72 h came out at 433 ± 37.6 µM.
In the case of `CCc1nnc2n1N=C/C(=C/c1ccccc1)S2` [Compound 6c, (Z)-7-benzylidene-3-ethyl-7H-[1,2,4]triazolo[3,4-b][1,3,4]thiadiazine], the CC50 at 72 h worked out at 979 ± 55.1 µM.
The same measure, in the same setting: the value for `CCCc1nnc2n1N=C/C(=C/c1ccccc1)S2` [Compound 6d, (Z)-7-benzylidene-3-propyl-7H-[1,2,4]triazolo[3,4-b][1,3,4]thiadiazine] was over 1100 µM.
Same read-out and setting: the value for `C1=Nn2cnnc2SC(c2ccccc2)=C1` [Compound 7a, 8-phenyl-[1,2,4]triazolo[3,4-b][1,3,4]thiadiazepine] was 42.9 ± 3.2 µM; that for `CCc1nnc2n1N=CC=C(c1ccccc1)S2` [Compound 7c, 3-ethyl-8-phenyl-[1,2,4]triazolo[3,4-b][1,3,4]thiadiazepine] was 6.1 ± 0.3 µM.
Consider `C(=C1\CNn2cnnc2S1)/c1ccccc1` [Compound 8a, (Z)-7-benzylidene-6,7-dihydro-5H-[1,2,4]triazolo[3,4-b][1,3,4]thiadiazine], for which the CC50 at 72 h is over 1300 µM.
The same measure, in the same setting: the value for `Cc1nnc2n1NC/C(=C/c1ccccc1)S2` [Compound 8b, (Z)-7-benzylidene-3-methyl-6,7-dihydro-5H-[1,2,4]triazolo[3,4-b][1,3,4]thiadiazine] was over 1200 µM.
Regarding `CCc1nnc2n1NC/C(=C/c1ccccc1)S2` [Compound 8c, (Z)-7-benzylidene-3-ethyl-6,7-dihydro-5H-[1,2,4]triazolo[3,4-b][1,3,4]thiadiazine], the CC50 at 72 h is over 1100 µM.
On the same count and under the same terms, the value for `CCCc1nnc2n1NC/C(=C/c1ccccc1)S2` [Compound 8d, (Z)-7-benzylidene-3-propyl-6,7-dihydro-5H-[1,2,4]triazolo[3,4-b][1,3,4]thiadiazine] was over 1100 µM; that for `C1=C(c2ccccc2)Sc2nncn2NC1` [Compound 10a, 8-phenyl-5,6-dihydro-[1,2,4]triazolo[3,4-b][1,3,4]thiadiazepine] was over 1300 µM; that for `Cc1nnc2n1NCC=C(c1ccccc1)S2` [Compound 10b, 3-methyl-8-phenyl-5,6-dihydro-[1,2,4]triazolo[3,4-b][1,3,4]thiadiazepine] was over 1100 µM.
On to `CCc1nnc2n1NCC=C(c1ccccc1)S2` [Compound 10c, 3-ethyl-8-phenyl-5,6-dihydro-[1,2,4]triazolo[3,4-b][1,3,4]thiadiazepine], for which the CC50 at 72 h worked out at 972 ± 66.4 µM.
Same read-out and setting: the value for `CCC(CC)O[C@@H]1C=C(C(=O)O)C[C@H](N)[C@H]1NC(C)=O` [Oseltamivir carboxylate, reference compound] was over 100 µM.
Same read-out and setting: the value for `CC(N)C12CC3CC(CC(C3)C1)C2` (centres unmarked) [Rimantadine, reference compound] was 312 ± 22.8 µM.

A further data set concerns MDCK cells (ATCC CCL-34). The data set is described as above. Type of data set: cell-based. The settings on record: 300 μg/mL, 1100–1300 μM. The protocol:
as §1
Take `CCCc1nnc2n1N=C/C(=C/c1ccccc1)S2` [Compound 6d, (Z)-7-benzylidene-3-propyl-7H-[1,2,4]triazolo[3,4-b][1,3,4]thiadiazine]: the “cytotoxicity at the highest concentration used” value was “did not demonstrate cytotoxicity”.

The same data set, now with this note: 72 h, MTT.
Turning to `CCc1nnc2n1N=CC=C(c1ccccc1)S2` [Compound 7c, 3-ethyl-8-phenyl-[1,2,4]triazolo[3,4-b][1,3,4]thiadiazepine], the “CC50, cytotoxic concentration; the concentration resulting in 50% death of cells” value is “one-digit micromoles”.

Test system in a further data set: not given
Experiment: not given
Settings: not given
In the case of `CCCc1nnc2n1NCC=C(c1ccccc1)S2`, the melting point (usually the temperature, or range, at which the solid turns liquid) was 103 to 104 °C.
With `CCCc1nnc2n1N=CC=C(c1ccccc1)S2`, the melting point is 88 to 89 °C.

(Values after article PMC9694146, “Novel [1,2,4]triazolo[3,4-b][1,3,4]thiadiazine and [1,2,4]triazolo[3,4-b][1,3,4]thiadiazepine Derivatives: Synthesis, Anti-Viral In Vitro Study and Target Validation Activity” (Molecules, 2022).)
